Where two headings read alike, the source gives them in different places.
Columns and labels:
[1] = system: male ddY mice; assay: Murine 6 Hz convulsion models (6 Hz, 44 mA corneal stimulation); assay type: in vivo; conditions: for ED50: Mus musculus, 25 min; for Therapeutic Index: TD50/ED50 (rotarod test-1 / 6 Hz convulsion model)
Experimental: (§1) With regard to the AMPA receptor inhibitory action of the compounds, AMPA-induced intraneuronal calcium entry-suppressing action was examined using a primary culture system of embryonic rat cerebral cortex neurons. […] AMPA inhibitor-induced central nervous system depressant action such as loss of coordination was evaluated using a rotarod performance test.
Immediately after the rotarod performance test-1 was completed, the cornea was stimulated by passing an electrical current (6 Hz, 44 mA, 0.2-millisecond pulse, for 3 seconds) from a copper electrode moistened with physiological saline, and the presence or absence of the development of a seizure was observed. The seizure was determined by the development of akinesia, jaw and forelimb clonus, whisker tremors, and Straub tail.
Further, for the purpose of evaluating the safety margin of each of the compounds of the present invention, the therapeutic index (TD50/ED50) was calculated by comparing the seizure inhibitory action (ED50) in the 6 Hz convulsion models and the neurotoxic action (TD50) in the rotarod performance test-1.

[2] = system: AMPA receptor; assay: AMPA-induced intraneuronal calcium entry-suppressing action (primary culture of embryonic rat cerebral cortex neurons, Fura 2-AM); assay type: cell-based; conditions: AMPA stimulation, intracellular calcium increase, read-out: IC50 for AMPA inhibition
Text: The present inventors conducted the following tests, in order to confirm the effects of the compounds of the present invention. With regard to the AMPA receptor inhibitory action of the compounds, AMPA-induced intraneuronal calcium entry-suppressing action was examined using a primary culture system of embryonic rat cerebral cortex neurons. With regard to the anticonvulsant action of the compounds, 6 Hz (44 mA) stimulation-induced convulsions known as a treatment-resistant convulsion model were used. AMPA inhibitor-induced central nervous system depressant action such as loss of coordination was evaluated using a rotarod performance test.
AMPA-Induced Intraneuronal Calcium Entry-Suppressing Action
<Culture conditions> Whole fetuses were removed from the uteri of Wistar rats at embryonic day 18 (Charles River Japan) anesthetized with isoflurane. Whole brains were removed from the whole fetuses, and the cerebral cortex was separated in Leibovitz's L-15 medium or Hanks balanced salt solution containing 20% fetal bovine serum. The resulting material was treated with trypsin/DNase solution at 37° C. for 45 to 60 minutes. After the serum was added to stop the trypsin reaction, the resulting material was centrifuged at 1200 to 1500 rpm for 3 to 5 minutes. After the supernatant was removed, Neurobasal medium (containing 2% B-27 supplement and the like; hereinafter “Neurobasal medium”) was added, and the cells were uniformly dispersed by gently pipetting. The cell suspension was slightly stirred, and then filtered through a nylon mesh filter. Viable cells were counted using a hemocytometer, and diluted with Neurobasal medium to 8 to 10×10^5 cells/mL. The cells were seeded into 96 well plates at 100 μL per well and cultured in a CO2 incubator (5% CO2, 37° C.). The medium was replaced after 24 hours, and neurons cultured for 7 to 21 days were used.
On the day of the assay, the medium was removed and replaced with a calcium measurement solution containing 5 to 10 μmol/L of Fura 2-AM (140 mmol/L sodium chloride, 5 mmol/L potassium chloride, 2 mmol/L magnesium chloride, 3 mmol/L calcium chloride, 24 mmol/L D(+)-glucose, 10 mmol/L HEPES, 1 μmol/L MK-801, pH 7.4), and the cells were treated in a CO2 incubator (5% CO2, 37° C.) for 1 to 2 hours. The calcium measurement solution containing the Fura-2 AM solution was subsequently removed, and the neurons in each well were washed twice with the calcium measurement solution for each well, and then 50 μL of the calcium measurement solution was added to each well. Subsequently, 50 μL of a test compound or medium prepared at a concentration 3-fold higher than the final concentration was added, and the cells were pre-treated for about 15 minutes. The plates were subsequently placed on the Fluorescence Drug Screening System 6000 (Hamamatsu Photonics K.K.). The cells were stimulated by adding to each well 50 μL of an AMPA stimulating solution prepared to 3.3 μmol/L with the calcium measurement solution. Changes in calcium concentration were measured as the changes in fluorescence intensity at excitation wavelengths of 340 nm and 380 nm (measurement wavelength: 540 nm). The rate of change of the intracellular calcium concentration was calculated according to the following equation: Rate of increase of the intracellular calcium concentration (% control)=(Tpost−Tpre)/(Cpost−Cpre)×100
wherein Tpost: the proportion of fluorescence of sample wells after stimulation; Tpro: the proportion of fluorescence of sample wells before stimulation; Cpost: the proportion of fluorescence of control wells after stimulation; and Cpre: the proportion of fluorescence of control wells before stimulation.
The IC50 value of the test compound for AMPA inhibition was determined from the rates of increase of the intracellular calcium concentration at various concentrations.

[3] = system: male ddY mice; assay: Rotarod performance test-2; assay type: in vivo; conditions: for Time of Fall: mice, oral at the ED50 dose of the 6 Hz model, 25 minutes after administration; for Ratio Relative to the Control Compound: time of fall relative to control compound
Experimental: Rotarod Performance Test-2
(§2) A rotarod (MK-660C from Muromachi Kikai Co., Ltd.) was used for the measurement. The rod (bar) was controlled to be gradually accelerated from its stationary state to a speed of 40 rotations/minute after 180 seconds. As the animals, 5 or 6-week-old male ddY mice (Japan SLC, Inc.) were used. On the day on which the test was performed, the mice were trained under the above-described measurement conditions, and mice that were able to ride on the rod for 1 minute or longer with good reproducibility were selected and subjected to the test.
As the control, only the medium was orally administered. After a lapse of 25 minutes from the oral administration of each compound, the mice were subjected to the rotarod performance test. Five or six mice were used for each compound group. For each compound, the time until the mice fell from the rotarod was measured.

[4] = system: male ddY mice; assay: Rotarod performance test-1; assay type: in vivo; conditions: oral, 25 minutes after administration, dose at which time of fall is reduced to 50% of medium control
Experimental: as §1
Rotarod Performance Test-1
as §2
Each of the compounds was dissolved in a medium (a solution prepared by adding DMSO to a 0.5% methylcellulose solution to a final concentration of 10%. As required, 0.5 to 5% of 1 mol/L hydrochloric acid and 5% Cremophor™ were added), and then orally administered to the mice in optimum four doses between 0.5 to 10 mg/kg. As the control, only the medium was orally administered. After a lapse of 25 minutes from the oral administration of each compound, the mice were subjected to the rotarod performance test. Five to twenty-five mice were used for each compound group.

[5] = mice, 6 Hz 44 mA stimulation-induced seizure, oral, after rotarod test-1 (25 minutes after administration), read-out: ED50

N#Cc1c(F)cccc1-c1cc2c(n(-c3cncc(F)c3)c1=O)COc1cccnc1-2 [Example 15, 2-fluoro-6-(7-(5-fluoropyridin-3-yl)-8-oxo-7,8-dihydro-6H-pyrano[3,2-b:5,4-b′]dipyridin-9-yl)benzonitrile]
ED50 ([1]; po): 1.41 mg/kg | Therapeutic Index ([1]; mice): 1.89 | IC50 [2]: 8.2 nM | Time of Fall ([3]; Table 4): 100.0 s | Ratio Relative to the Control Compound ([3]; Table 4): 7.0 | TD50 [4]: 2.67 mg/kg, p.o.

N#Cc1c(F)ccc(F)c1-c1cc2c(n(-c3cccnc3)c1=O)COc1cccnc1-2 [Example 19, 3,6-difluoro-2-(8-oxo-7-(pyridin-3-yl)-7,8-dihydro-6H-pyrano[3,2-b:5,4-b′]dipyridin-9-yl)benzonitrile]
ED50 ([1]; po): 2 mg/kg | Therapeutic Index ([1]; mice): 1.63 | IC50 [2]: 23.4 nM | Time of Fall ([3]; Table 4): 121.7 s | Ratio Relative to the Control Compound ([3]; Table 4): 8.5 | TD50 [4]: 3.25 mg/kg, p.o.

O=c1c(-c2cccc(F)c2Cl)cc2c(n1-c1cncc(F)c1)COc1cccnc1-2 [Example 17, 9-(2-chloro-3-fluorophenyl)-7-(5-fluoropyridin-3-yl)-6H-pyrano[3,2-b:5,4-b′]dipyridin-8(7H)-one]
ED50 ([1]; po): 2 mg/kg | Therapeutic Index ([1]; mice): 2.14 | IC50 [2]: 17.7 nM | Time of Fall ([3]; Table 4): 147.0 s | Ratio Relative to the Control Compound ([3]; Table 4): 10.3 | TD50 [4]: 4.27 mg/kg, p.o.

Cc1ncc(-n2c3c(cc(-c4cccc(F)c4C#N)c2=O)-c2ncccc2OC3)cn1 [Example 21, 2-fluoro-6-(7-(2-methylpyrimidin-5-yl)-8-oxo-7,8-dihydro-6H-pyrano[3,2-b:5,4-b′]dipyridin-9-yl)benzonitrile]
ED50 [1, 5]: 2.5 mg/kg | Therapeutic Index ([1]; mice): 2.12 | IC50 [2]: 44.3 nM | Time of Fall ([3]; Table 4): 118.7 s | Ratio Relative to the Control Compound ([3]; Table 4): 8.3 | TD50 [4]: 5.30 mg/kg, p.o.

N#Cc1c(F)cccc1-c1cc2c(n(-c3cncc(Cl)c3)c1=O)COc1cccnc1-2 [Example 20, 2-(7-(5-chloropyridin-3-yl)-8-oxo-7,8-dihydro-6H-pyrano[3,2-b:5,4-b′]dipyridin-9-yl)-6-fluorobenzonitrile]
ED50 ([1]; po): 2.47 mg/kg | Therapeutic Index ([1]; mice): 1.91 | IC50 [2]: 8.26 nM | Time of Fall ([3]; Table 4): 71.3 s | Ratio Relative to the Control Compound ([3]; Table 4): 5.0 | TD50 [4]: 4.74 mg/kg, p.o.

COc1ncc(-n2c3c(cc(-c4cccc(F)c4C#N)c2=O)-c2ncccc2OC3)cn1 [Example 5, 2-fluoro-6-(7-(2-methoxypyrimidin-5-yl)-8-oxo-7,8-dihydro-6H-pyrano[3,2-b:5,4-b′]dipyridin-9-yl)benzonitrile]
ED50 [1, 5]: 3.23 mg/kg | Therapeutic Index ([1]; mice): 2.02 | IC50 [2]: 31.8 nM | Time of Fall ([3]; Table 4): 108.7 s | Ratio Relative to the Control Compound ([3]; Table 4): 7.6 | TD50 [4]: 6.53 mg/kg, p.o.

N#Cc1ncccc1-c1cc2c(n(-c3ccc(F)cc3)c1=O)COc1cccnc1-2 [Example 11, 3-(7-(4-fluorophenyl)-8-oxo-7,8-dihydro-6H-pyrano[3,2-b:5,4-b′]dipyridin-9-yl)picolinonitrile]
ED50 [1, 5]: 1.69 mg/kg | Therapeutic Index ([1]; mice): 2.99 | IC50 [2]: 26.3 nM | Time of Fall ([3]; Table 3): 114.7 s | Ratio Relative to the Control Compound ([3]; Table 3): 9.4 | TD50 [4]: 5.05 mg/kg, p.o.

O=c1c(-c2ccccc2Cl)cc2c(n1-c1cccnc1)COc1cccnc1-2 [Example 1, 9-(2-chlorophenyl)-7-(pyridin-3-yl)-6H-pyrano[3,2-b:5,4-b′]dipyridin-8(7H)-one]
ED50 ([1]; po): 2.08 mg/kg | Therapeutic Index ([1]; mice): 1.49 | IC50 [2]: 33.5 nM | Time of Fall ([3]; Table 3): 56.3 s | Ratio Relative to the Control Compound ([3]; Table 3): 4.6 | TD50 [4]: 3.09 mg/kg, p.o.

N#Cc1ccccc1-c1cc2c(n(-c3ccc(F)cc3)c1=O)COc1cccnc1-2 [Example 10, 2-(7-(4-fluorophenyl)-8-oxo-7,8-dihydro-6H-pyrano[3,2-b:5,4-b′]dipyridin-9-yl)benzonitrile]
ED50 ([1]; po): 2.08 mg/kg | Therapeutic Index ([1]; mice): 1.62 | IC50 [2]: 18.8 nM | Time of Fall ([3]; Table 3): 84.2 s | Ratio Relative to the Control Compound ([3]; Table 3): 6.9 | TD50 [4]: 3.37 mg/kg, p.o.

COc1cncc(-n2c3c(cc(-c4cccc(F)c4C#N)c2=O)-c2ncccc2OC3)c1 [Example 2, 2-fluoro-6-(7-(5-methoxypyridin-3-yl)-8-oxo-7,8-dihydro-6H-pyrano[3,2-b:5,4-b′]dipyridin-9-yl)benzonitrile]
ED50 ([1]; po): 1.91 mg/kg | Therapeutic Index ([1]; mice): 2.36 | IC50 [2]: 16 nM | Time of Fall ([3]; Table 3): 148.0 s | Ratio Relative to the Control Compound ([3]; Table 3): 12.1 | TD50 [4]: 4.50 mg/kg, p.o.

N#Cc1ccccc1-n1nc2c(c(-c3cccnc3)c1=O)COc1ccccc1-2 [Control Compound, 2-(3-oxo-4-(pyridin-3-yl)-3,5-dihydro-2H-chromeno[4,3-c]pyridazin-2-yl)benzonitrile, reference compound]
ED50 ([1]; po): 3.96 mg/kg | Therapeutic Index ([1]; mice): 0.69 | IC50 [2]: 20 nM | Time of Fall ([3]; Table 3): 12.2 s | Ratio Relative to the Control Compound ([3]; Table 3): 1.0 | Time of Fall ([3]; Table 4): 14.3 s | Ratio Relative to the Control Compound ([3]; Table 4): 1.0 | TD50 [4]: 2.73 mg/kg, p.o.
